Assays:
HIV-1 LAI = assay: Antiviral activity in MT-2 cells exposed to HIV-1 LAI; assay type: cell-based; details: for fold improvement in antiviral assay with respect to 3b: relative to 3b
HIV-1 protease = HIV-1 protease (Human immunodeficiency virus type 1 group M subtype B, UniProt P04585); assay: HIV-1 protease enzyme inhibition; assay type: biochemical

COc1ccc(S(=O)(=O)N(CC(C)C)C[C@@H](O)[C@H](Cc2ccccc2)NC(=O)c2cccc(C(=O)N(C)Cc3coc(C)n3)c2)cc1 [Inhibitor 3c, N^1-((2S,3R)-3-hydroxy-4-((N-isobutyl-4-methoxyphenyl)sulfonamido)-1-phenylbutan-2-yl)-N^3-methyl-N^3-((2-methyloxazol-4-yl)methyl)isophthalamide]
fold improvement in antiviral assay with respect to 3b (HIV-1 LAI): over 20 fold

COc1ccc(S(=O)(=O)N(CC(C)C)C[C@@H](O)[C@H](Cc2ccccc2)NC(=O)c2cccc(C(=O)N(C)Cc3csc(C)n3)c2)cc1 [Inhibitor 3d, N^1-((2S,3R)-3-hydroxy-4-((N-isobutyl-4-methoxyphenyl)sulfonamido)-1-phenylbutan-2-yl)-N^3-methyl-N^3-((2-methylthiazol-4-yl)methyl)isophthalamide]
fold enhanced protease inhibitory activity over 3c (HIV-1 protease; relative to 3c): 5 fold | fold improvement in antiviral assay with respect to 3b (HIV-1 LAI): over 20 fold

COc1ccc(S(=O)(=O)N(CC(C)C)C[C@@H](O)[C@H](Cc2ccccc2)NC(=O)c2cc(O)cc(C(=O)N(C)Cc3nc(C)oc3C)c2)cc1 [Inhibitor 3f, N^1-((2,5-dimethyloxazol-4-yl)methyl)-5-hydroxy-N^3-((2S,3R)-3-hydroxy-4-((N-isobutyl-4-methoxyphenyl)sulfonamido)-1-phenylbutan-2-yl)-N^1-methylisophthalamide]
fold protease inhibitory potency over methylamino analogue 3e (HIV-1 protease; relative to 3e): 10 fold

COc1ccc(S(=O)(=O)N(CC(C)C)C[C@@H](O)[C@H](Cc2ccccc2)NC(=O)c2cccc(C(=O)N3CCC[C@@H]3c3nc(C)cs3)c2)cc1 [Inhibitor 4b, N-((2S,3R)-3-hydroxy-4-((N-isobutyl-4-methoxyphenyl)sulfonamido)-1-phenylbutan-2-yl)-3-((R)-2-(4-methylthiazol-2-yl)pyrrolidine-1-carbonyl)benzamide]
fold improved potency over (S) counterpart 4a (HIV-1 protease; relative to 4a): over 100 fold

COc1ccc(S(=O)(=O)N(CC(C)C)C[C@@H](O)[C@H](Cc2ccccc2)NC(=O)c2cccc(C(=O)N3CCC[C@@H]3c3nc(C)co3)c2)cc1 [Inhibitor 4h, N-((2S,3R)-3-hydroxy-4-((N-isobutyl-4-methoxyphenyl)sulfonamido)-1-phenylbutan-2-yl)-3-((R)-2-(4-methyloxazol-2-yl)pyrrolidine-1-carbonyl)benzamide]
fold improved antiviral profile with respect to 4g (HIV-1 LAI; relative to 4g): 10 fold
